In PMC11123012, “Bioactive Alkaloids from the Mangrove-Derived Fungus Nigrospora oryzae SYSU-MS0024” (Marine Drugs, 2024):
pEC50, pIC50: −log10 of the molar value.

Legend:
influenza A virus H1N1 = system: influenza A virus H1N1; set-up: method as in PMID 34052697; conditions: read-out: anti-influenza A virus H1N1 activity IC50; cited from earlier work
[1] = DPPH free radical scavenging assay; conditions: three replicates, read-out: antioxidant activity EC50
Procedure: An optimized colorimetric method described previously was used to evaluate the DPPH free radical scavenging activities of compounds 1–11 [37]. All tests were measured in three replicates. Vitamin C was taken as a positive control.

AChE = AChE (Homo sapiens, UniProt P22303); experiment: biochemical; conditions: three replicates; read-out: AChE inhibitory activity IC50
Sequence of AChE (P22303 32-614): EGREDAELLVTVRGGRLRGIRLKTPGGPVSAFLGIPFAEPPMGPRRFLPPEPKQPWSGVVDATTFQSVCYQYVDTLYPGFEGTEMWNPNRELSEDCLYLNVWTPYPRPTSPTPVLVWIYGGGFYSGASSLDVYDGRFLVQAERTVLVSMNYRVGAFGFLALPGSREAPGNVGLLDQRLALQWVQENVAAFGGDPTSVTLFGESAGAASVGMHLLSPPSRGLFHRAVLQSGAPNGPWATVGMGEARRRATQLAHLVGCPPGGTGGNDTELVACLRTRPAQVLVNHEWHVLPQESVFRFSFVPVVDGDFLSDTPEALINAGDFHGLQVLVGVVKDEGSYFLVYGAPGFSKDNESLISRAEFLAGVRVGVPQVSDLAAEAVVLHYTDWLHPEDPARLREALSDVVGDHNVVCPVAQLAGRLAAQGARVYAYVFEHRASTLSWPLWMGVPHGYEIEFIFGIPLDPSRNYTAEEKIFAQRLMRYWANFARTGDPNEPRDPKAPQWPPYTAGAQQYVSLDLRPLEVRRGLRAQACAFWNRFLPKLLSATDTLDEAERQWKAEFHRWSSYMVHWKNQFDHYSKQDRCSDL
Procedure: All compounds were examined for inhibitory activity against AChE using an optimized colorimetric method described previously. All tests were carried out in three replicates. Donepezil hydrochloride was taken as the positive control.

BV-2 cells = experiment: LPS-induced NO production in BV-2 cells; assay type: cell-based; conditions: mean ± SD of five replicates
Procedure: (§1) NO determination: all compounds were examined for the effect on the release of NO by BV-2 cell lines using the method described previously. All experiments were carried out in five replicates. Microglia Viability Assay: The effects of compounds 1–11 on the viability of BV2 microglia were carried out by MTT assay. BV2 microglia were first seeded at a density of 4000 cells per well for 12 or 24 h using a 96-well plate and then treated with compounds at the concentrations of 1– 100 μmol/L for another 36 h. After that, cells were incubated with MTT (0.5 mg/mL) in a 5% CO2 incubator at 37 °C. Three hours later, the medium was removed, and DMSO (150 μL) was added into each well to dissolve formazan crystals. The […] absorbances were measured at 570 nm using an ELISA microplate reader (Biotek, Winooski, VT, USA).

BV2 microglia = experiment: Microglia viability assay (MTT); assay type: cell-based; conditions: BV-2 cells, concentration of 100.0 μmol/L
Procedure: as §1

## CC[C@@H](C)C1=C2NC(=O)[C@@](O)(C/C(=C\C=O)OC)C(=O)N2[C@H](C(C)C)C(=O)N1 [deg-pyrasplorine B]
Influenza A virus H1N1
  pIC50: 4.30

## O=C1O[C@H]([C@@H](O)CO)C(O)=C1O [Vitamin C, reference compound]
[1]
  pEC50: 3.84

## CC(=O)Nc1ccccc1O [Compound 5, N-(2-hydroxyphenyl)-acetamide]
[1]
  pEC50: 3.78

## CC(O)C12CCC(=O)N1c1ccccc1CO2 (centres unmarked) [Compound 2, Nigrosporine B]
AChE
  pIC50: 3.98
BV-2 cells; compound at 20 μmol/L
  NO accumulation induced by LPS: 47.2 ± 0.2 ng/mL
BV-2 cells; compound at 50 μmol/L
  NO accumulation induced by LPS: 41.7 ± 0.4 ng/mL
BV-2 cells; compound at 100 μmol/L
  NO accumulation induced by LPS: 21.8 ± 0.1 ng/mL
BV2 microglia
  cytotoxicity (BV-2 cell viability): without cytotoxicity
